Measured values from US9950038B2, “Methods and compositions for inhibiting delayed graft function” (THE TRUSTEES OF THE UNIVERSIY OF PENNSYLVANIA, priority 2011, dated 2018).
Ends that are not written are not given here.

Experiments:
[1] = tested on: conscious dogs with pacing-induced DCM; assay: Myocardial glucose uptake during hyperinsulinemic euglycemic clamp in conscious dogs with pacing-induced DCM; assay type: in vivo; details: basal and insulin-stimulated
Description: This provides glycolytic ATP without further increases in mitochondrial ROS production. […] This provides the rationale for the use of the native peptide in the treatment of post-ischemic allograft injury.

[2] = tested on: humans with acute myocardial infarction; assay: Infusion at reperfusion in humans with acute myocardial infarction; assay type: in vivo
Description: Lower panel illustrates individual data. […] Lower panel illustrates individual data.
(§1) This mechanism involves improved ventricular relaxation which is known to be most sensitive to ATP depletion.

[3] = tested on: patients with Class 3-4 heart failure; assay: Administration to patients with Class 3-4 heart failure; assay type: in vivo, humans; details: administered for 5 weeks
conscious dogs = assay: Recovery after coronary artery occlusion and reperfusion in conscious dogs; assay type: in vivo; details: 1.5 pmol/kg/min at the time of reperfusion following coronary artery occlusion
Description: CBF and respective regional wall thickening responses to CAO and CAR. The CBF response (top) is characterized by reactive hyperemia followed by gradual return of flow to pre-occlusion levels in both control and GLP-1-treated animals. The different patterns of recovery of regional contractile function between the two groups are illustrated (bottom).
as §1

[4] = tested on: conscious pigs with biventricular failure; assay: Chronic conscious pig model of biventricular failure with impaired renal blood flow; assay type: in vivo; details: short term (2 hours) infusion, 1.5 pmol/kg/min
Description: FIG. 4, comprising FIG. 4A and 4B show impaired renal blood flow but not cardiac output in pigs with biventricular failure.
There is a model of biventricular heart failure in conscious pigs that is associated with reductions in renal blood flow and function. FIG. 3 illustrates the model and the perturbation in renal blood flow. This is an important model of cardio-renal syndrome in which renal and cardiac injury are found together. FIG. 4 illustrates a 50% reduction in renal blood flow without a reduction in cardiac output in conscious pigs with biventricular failure.

HIF-1a = HIF-1a induction in normal hearts; assay type: in vivo; details: intravenous continuous administration
Description: The induction of this cyto-protective program is beneficial in the face of subsequent ischemic injury in allografts. p38 MAP kinase activation has been associated with the stabilization of praline residues which otherwise target the HIF-1a subunits to ubiquinization. The stabilization allows the subunits to form heterodimers which active a gene program of cytoprotection.

| Substance | myocardial glucose uptake [1] | peri-infarct and global LV function ([2]; 1.5 pmol/kg/min at the time of reperfusion, humans with acute myocardial infarction, versus patients on comparable therapies without GLP-1) | natriuresis [3] | recovery of left ventricular function (conscious dogs) | requirement for inotropic and pressure support ([2]; GLP-1 infusion, population not given) | GFR [4] | renal blood flow [4] | urinary sodium excretion [4] | HIF-1a mRNA (HIF-1a) | expression of HIF-1a inducible genes, heme-oxygenase-1 (HO-1) (HIF-1a) |
| --- | --- | --- | --- | --- | --- | --- | --- | --- | --- | --- |
| GLP-1 (9-36) amide (EGTFTSDVSSYLEGQAAKEFIAWLVKGR-NH2) | increase myocardial glucose uptake independent of an increase in circulating insulin | – | – | – | – | – | – | – | – | – |
| GLP-1 (7-36) amide (HAEGTFTSDVSSYLEGQAAKEFIAWLVKGR-NH2) | increase myocardial glucose uptake independent of an increase in circulating insulin | improved peri-infarct and global LV function | significant natriuresis that required reduction in diuretic doses | more rapid and complete recovery of left ventricular function | – | – | – | – | – | – |
| Glucagon-like peptide-1 [GLP-1] | – | – | – | – | reduces the requirement for inotropic and pressure support | improvement in GFR | returned renal blood flow to near normal levels | increased urinary sodium excretion | increases in HIF-1a mRNA | increased expression of HIF-1a inducible genes, heme-oxygenase-1 (HO-1) |
